Source: patent US20060205769A1, “Piperidine or 8-aza-bicyclo[3.2.1]oct-3-yl derivatives useful as modulators of chemokine receptor activity” (priority 2003, published 2006)
Structures can show the parent of a compound that is named as a salt.

Target: T1, recombinant human CCR5 receptor (Homo sapiens, UniProt P51681)
T1 construct: expressed in transfected cells; host or cells: Chinese hamster ovary (CHO) cells; membranes
Test: in vitro radioligand binding assay: inhibition of binding of iodinated MIP-1α to membranes of CHO cells expressing CCR5 (scintillation proximity)
Settings: displacement of 0.1 nM iodinated MIP-1α; negative log (base 10) of IC50; average if tested more than once
Procedure: The ability of compounds to inhibit the binding of MIP-1α was assessed by an in vitro radioligand binding assay. Membranes were prepared from Chinese hamster ovary cells which expressed the recombinant human CCR5 receptor. These membranes were incubated with 0.1 nM iodinated MIP-1α, scintillation proximity beads and various concentrations of the compounds of the invention in 96-well plates. The amount of iodinated MIP-1α bound to the receptor was determined by scintillation counting. Competition curves were obtained for compounds and the concentration of compound which displaced 50% of bound iodinated MIP-1α was calculated (IC50).
In Table IV the results are presented as Pic50 values. A Pic50 value is the negative log (to base 10) of the IC50 result, so an IC50 of 1 μM (that is 1×10^−6M) gives a Pic50 of 6. If a compound was tested more than once then the data below is an average of the probative tests results.

T1 sequence (P51681 whole entry): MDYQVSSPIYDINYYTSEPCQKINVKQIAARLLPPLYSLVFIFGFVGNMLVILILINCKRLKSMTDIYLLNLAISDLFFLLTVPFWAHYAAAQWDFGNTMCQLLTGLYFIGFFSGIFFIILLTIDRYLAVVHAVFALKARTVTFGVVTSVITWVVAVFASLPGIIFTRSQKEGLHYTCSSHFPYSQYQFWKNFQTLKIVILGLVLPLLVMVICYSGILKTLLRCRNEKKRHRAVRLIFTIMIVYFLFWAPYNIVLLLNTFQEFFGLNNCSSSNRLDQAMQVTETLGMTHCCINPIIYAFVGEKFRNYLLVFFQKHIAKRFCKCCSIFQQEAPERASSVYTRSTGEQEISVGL

SMILES | IC50 [nM]
CS(=O)(=O)N1CCC([C@@H](CCN2CCC(CCS(=O)(=O)C3CCNCC3)CC2)c2cc(F)cc(F)c2)CC1 [Table I Compound 2] | 39.8
CS(=O)(=O)N1CCC([C@@H](CCN2CCC(CCS(=O)(=O)C3CCN(S(=O)(=O)C(F)(F)F)CC3)CC2)c2cc(F)cc(F)c2)CC1 [Table I Compound 3] | 3.98
CS(=O)(=O)c1ccc([C@@H](CCN2CCC(CCS(=O)(=O)N3CCCCC3)CC2)c2cc(F)cc(F)c2)cc1 [Table III Compound 1, (R)-1-{3-(3,5-difluorophenyl)-3-[4-(methylsulfonyl)phenyl]propyl}-4-[2-(piperidin-1-ylsulfonyl)ethyl]piperidine hydrochloride] | 3.16
